{"source": "patent US10450327B2", "about": "“Epidithiodioxopiperazine compound or its derivatives, and the use thereof” (priority 2011, dated 2019)", "key": {"HAECs": {"test_system": "HAECs", "assay_type": "cell-based, human", "details": "up to 50 nM (100 nM for A4, A7, A9)", "method": "For cell proliferation assay, HAECs were divided at a concentration of 4000 cells/well in a final volume of 100 μl onto a 96-well plate including a siRNA-transfection reagent mixture. After siRNA-transfected for 24 hours, the cells were serum-starved for 18 hours, and then placed in an EBM-2 basal medium supplemented with VEGF-A165 (25 ng/ml, Cat no. 293-VE, R&D systems) for additional 24 hours. The extent of cell proliferation was measured using a WST-1 cell proliferation assay kit (Roche Diagnostics, USA), and the number of cells was expressed as absorbance at 450 nm, which was averaged from 3 wells after subtracting the turbidity at 600 nm.\nThe cell migration assay was performed in a 24-well Transwell culture chamber (Costar; 8-μm pore size). The bottom of the filter was coated with gelatin B (1 mg/ml) and air-dried for 1 hour. HAECs (6×10^3) were added to upper chambers including siRNA-transfection complexes. After 24 hours, the siRNA-transfected HAECs were serum-starved overnight. A solution of VEGF-A (25 ng/ml) was prepared in a basal medium including 0.5% bovine serum albumin (BSA), and added to bottom chambers. The upper chamber wells were each filled with a basal medium including 0.5% BSA. The Transwell chamber was incubated for 8 hours under the condition of 37° C./5% carbon dioxide. After the incubation, the non-migrated cells at the top of the filter were removed, and the cells that migrated onto the bottom of filter were fixed and stained with 0.6% hematoxylin and 0.5% eosin. The stained cells were photographed and counted. The number of migrating cells was averaged from 3 wells."}, "[1]": {"test_system": "PrxII knocked down HASMCs", "test": "Intracellular hydrogen peroxide (DCF fluorescence), PrxII knocked down HASMCs", "assay_type": "cell-based, human", "details": "concentration-dependent", "method": "(§1) First, the ability of GT to eliminate intracellular hydrogen peroxide in PrxII knocked down HASMCs and HAECs was tested. The cellular hydrogen peroxide production was monitored using an oxidant-sensitive fluorescence dye (2′,7′-dihydro-chlorofluorescein diacetate, H2DCF-DA)."}, "VEGFR2 and ERK": {"test_system": "VEGFR2 and ERK", "test": "VEGF-induced signaling, immunoblot, PrxII knocked down HAECs", "assay_type": "cell-based, human", "details": "2 hours pretreatment, VEGF 10 minutes", "method": "The cells were rinsed with an ice-cold phosphate buffered saline (PBS) solution and then lysed in an extraction buffer solution containing 20 mM Hepes (pH 7.0), 1% Triton X-100, 150 mM NaCl, 10% glycerol, 1 mM EDTA, 2 mM EGTA, 1 mM DTT, 5 mM Na3VO4, 5 mM NaF, 1 mM AEBSF, aprotinin (5 μg/ml), and leupeptin (5 μg/ml). After being centrifuged at 12,000×g, the purified cell extracts were used for immunoblotting. In order to adjust the loading, the membranes were stripped by shaking them for 30 minutes at 60° C. in 67 mM Tris (pH 6.7), 2% SDS, and 100 mM 2-mercaptoethanol solution, and reprobed with an appropriate pan antibody.\nIn addition, the regulatory effects of GT on the PDGFRβ- and VEGFR2-mediated signaling pathway were examined. The GT treatment in HASMCs was quite different from PDGF-induced tyrosine phosphorylation that was enhanced by the PrxII knockdown (FIG. 12a). […] Conversely, the GT treatment in HAECs restored the VEGF-dependent activation of VEGFR2 and ERK that had been diminished by the PrxII knockdown (FIG. 12b). The effects of GT in vascular cell fuction were further validated.\nLastly, the effects of GT, a representative ETP compound, on vascular cells were compared with the effects of other compounds known as anti-oxidant compounds such as N-acetylcysteine or butylated hydroxyanisole, and the results are shown in FIG. 33. Immunoblotting was performed by pretreating HAECs in which PrxII was knocked down by injecting siRNA with each compound at the concentrations indicated in the graphs for two hours, and then treating with VEGF for 10 minutes. […] These comparative experiments led the inventors of the present invention to conclude that the distinguished […] function of the ETP compounds is clearly due to the PrxII-analogous activity, and additionally to the special chemical property of the dithioketopiperazine ring."}, "[2]": {"test_system": "left carotid artery of a PrxII−/− mouse", "test": "Wire-injured carotid artery of PrxII−/− mouse", "assay_type": "in vivo", "details": "filter paper strip soaked in GT solution, 30 minutes; 10th day after injury", "method": "In addition, in order to identify the effects of GT on vascular thickening in a PrxII−/− mouse, left carotid artery of a PrxII−/− mouse was damaged using a flexible wire. After the injury, a Whatman No. 1 filter paper strip was soaked in a control vehicle or a GT solution, and the paper was attached to the surface of vascular epithelia for 30 minutes for the solution to permeate into the tissue. The mouse was recovered at the 10th day after the injury. As a result, the ratio of intima versus media measured from the HE-stained carotid artery sample was presented as mean+− standard error (n=8 per group, *p<0.01)."}, "PrxII knocked down HAECs": {"test_system": "PrxII knocked down HAECs", "test": "Intracellular hydrogen peroxide (DCF fluorescence), PrxII knocked down HAECs", "assay_type": "cell-based, human", "method": "as §1"}}}
{"smiles": "CN1C(=O)[C@]23CC4=CC=C[C@H](O)[C@H]4N2C(=O)[C@@]1(CO)SS3", "note": "[gliotoxin]", "values": [{"measurement": "VEGF-induced proliferation and chemotactic transmigration of HAECs, impaired by PrxII knockdown", "setting": "HAECs", "result": "enhancement"}, {"measurement": "level of intracellular hydrogen peroxide increased by PDGF and PrxII knockdown", "setting": "[1]", "result": "completely canceled out"}, {"measurement": "VEGF-dependent activation of VEGFR2 and ERK", "setting": "VEGFR2 and ERK", "result": "restored"}, {"measurement": "vascular thickening (ratio of intima versus media)", "setting": "[2]", "result": "markedly reduced"}, {"measurement": "basal level of intracellular hydrogen peroxide enhanced by PrxII knockdown", "setting": "PrxII knocked down HAECs", "result": "completely eliminated"}]}
